According to patent publication US9637469B2, “Pyridine derivative” (Teijin Pharma Limited, priority 2012, dated 2017):

target: T1, human URAT1 (Homo sapiens, UniProt Q96S37); experiment: Test for inhibition of uric acid transport using human URAT1-expressing cells;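 also: three stars up to 0.2 µM two stars 0.2-2 µM one star 2-20 µM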; format: cell-based; conditions: HEK 293 cells expressing human URAT1; 14C-labeled uric acid 25 μM; uptake 37° C. for 5 min
T1 construct: Full-length cDNA of human URAT1 (hURAT1)
T1 sequence (Q96S37 1-553): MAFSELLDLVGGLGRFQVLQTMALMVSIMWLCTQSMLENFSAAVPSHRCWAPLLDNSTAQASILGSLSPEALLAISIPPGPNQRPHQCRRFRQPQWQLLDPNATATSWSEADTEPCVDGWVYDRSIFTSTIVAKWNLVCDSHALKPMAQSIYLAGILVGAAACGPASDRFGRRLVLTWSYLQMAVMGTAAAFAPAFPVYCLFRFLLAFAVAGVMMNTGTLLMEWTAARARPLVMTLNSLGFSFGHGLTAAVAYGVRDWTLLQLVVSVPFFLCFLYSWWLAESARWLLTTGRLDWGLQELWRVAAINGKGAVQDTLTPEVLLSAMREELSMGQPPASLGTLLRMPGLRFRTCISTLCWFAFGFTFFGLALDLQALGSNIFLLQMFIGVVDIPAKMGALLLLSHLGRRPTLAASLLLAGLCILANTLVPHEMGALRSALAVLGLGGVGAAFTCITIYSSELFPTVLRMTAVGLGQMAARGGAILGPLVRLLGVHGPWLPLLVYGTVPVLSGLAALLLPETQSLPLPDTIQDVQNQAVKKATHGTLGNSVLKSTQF
Summary of the method: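 IC50 values reflect inhibition of ¹⁴C-uric acid uptake (25 μM final, 5 min, 37 °C) by compound. Cells were HEK293 stably expressing full-length human URAT1, preincubated in Na-gluconate-substituted HBSS. Radioactivity in lysates was expressed relative to DMSO control as 100%.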

Inhibitory Activity (IC50 of uric acid transport inhibition) | SMILES
* * | Cc1nc(-c2cncc(F)c2)n(Cc2sc(Cl)cc2Cl)c1C(=O)O [Compound A228, 1-((2,4-dichlorothiophen-5-yl)methyl)-2-(5-fluoropyridin-3-yl)-4-methyl-1H-imidazole-5-carboxylic acid]
* * | Cc1nc(Oc2ccccn2)n(Cc2cc(Cl)ccc2Cl)c1C(=O)O [Compound A247, 1-(2,5-dichlorobenzyl)-4-methyl-2-(pyridin-2-yloxy)-1H-imidazole-5-carboxylic acid]
* * * | Cc1cncc(-c2nc(Cl)c(C(=O)O)n2Cc2cc(Cl)ccc2Cl)c1 [Compound A219, 4-chloro-1-(2,5-dichlorobenzyl)-2-(5-methylpyridin-3-yl)-1H-imidazole-5-carboxylic acid]
* * | O=C(O)c1c(Cl)nc(-c2cccnc2)n1Cc1cccc2ccccc12 [Compound A9, 4-chloro-1-(napthalen-1-ylmethyl)-2-(pyridin-3-yl)-1H-imidazole-5-carboxylic acid]
* * * | Cc1cncc(-c2ncc(C(=O)O)n2Cc2cc(Cl)ccc2Cl)c1 [Compound A206, 1-(2,5-dichlorobenzyl)-2-(5-methylpyridin-3-yl)-1H-imidazole-5-carboxylic acid]
* * | Cc1nc(-c2cccnc2)n(Cc2ccc(C)c3ccccc23)c1C(=O)O [Compound A17, 4-methyl-1-((4-methylnaphthalen-1-yl)methyl)-2-(pyridin-3-yl)-1H-imidazole-5-carboxylic acid]
* * * | CC(C)c1nc(-c2cncc(Cl)c2)n(Cc2cc(Cl)ccc2Cl)c1C(=O)O [Compound A146, 2-(5-chloropyridin-3-yl)-1-(2,5-dichlorobenzyl)-4-isopropyl-1H-imidazole-5-carboxylic acid]
* * * | Cc1cncc(-c2ccc(/C=C/C(=O)O)n2Cc2cc(Cl)ccc2Cl)c1 [Compound B34, (E)-3-(1-(2,5-dichlorobenzyl)-2-(5-methylpyridin-3-yl)-1H-pyrrol-5-yl)acrylic acid]
* * * | CCOc1cncc(-c2nc(C)c(C(=O)O)n2Cc2cc(Cl)ccc2Cl)c1 [Compound A174, 1-(2,5-dichlorobenzyl)-2-(5-ethoxypyridin-3-yl)-4-methyl-1H-imidazole-5-carboxylic acid]
* * | COc1ccc(-c2nc(C)c(C(=O)O)n2Cc2cc(Cl)ccc2Cl)cn1 [Compound A161, 1-(2,5-dichlorobenzyl)-2-(6-methoxypyridin-3-yl)-4-methyl-1H-imidazole-5-carboxylic acid]
* * * | O=C(O)c1c(C2CC2)nc(-c2cncc(Cl)c2)n1Cc1cccc2ccsc12 [Compound A236, 1-(benzo[b]thiophen-7-ylmethyl)-2-(5-chloropyridin-3-yl)-4-cyclopropyl-1H-imidazole-5-carboxylic acid]
* * * | O=C(O)c1nc(-c2cncc(Cl)c2)n(Cc2cc(Cl)ccc2Cl)c1C(=O)O [Compound A210, 2-(5-chloropyridin-3-yl)-1-(2,5-dichlorobenzyl)-1H-imidazole-4,5-dicarboxylic acid]
* * * | O=C(O)c1c(CO)nc(-c2cncc(Cl)c2)n1Cc1cc(Cl)ccc1Cl [Compound A191, 2-(5-chloropyridin-3-yl)-1-(2,5-dichlorobenzyl)-4-(hydroxymethyl)-1H-imidazole-5-carboxylic acid]
* * * | Cc1nc(-c2cncc(Cl)c2)n(Cc2cc(Cl)sc2Cl)c1C(=O)O [Compound A226]
* * * | CSc1nc(-c2cccnc2)n(Cc2cc(Cl)ccc2Cl)c1C(=O)O [Compound A104, 1-(2,5-dichlorobenzyl)-4-(methylthio)-2-(pyridin-3-yl)-1H-imidazole-5-carboxylic acid]
* * * | O=C(O)c1c(-c2ccc(F)cc2)nc(-c2cccnc2)n1Cc1cc(Cl)ccc1Cl [Compound A93, 1-(2,5-dichlorobenzyl)-4-(4-fluorophenyl)-2-(pyridin-3-yl)-1H-imidazole-5-carboxylic acid]
* * * | O=C(O)c1c(CN2CCCC2)nc(-c2cncc(Cl)c2)n1Cc1cc(Cl)ccc1Cl [Compound A194, 2-(5-chloropyridin-3-yl)-1-(2,5-dichlorobenzyl)-4-(pyrrolidin-1-ylmethyl)-1H-imidazole-5-carboxylic acid]
* * | Cc1nc(-c2cnc3ccccc3c2)n(Cc2cc(Cl)ccc2Cl)c1C(=O)O [Compound A67, 1-(2,5-dichlorobenzyl)-4-methyl-2-(quinolin-3-yl)-1H-imidazole-5-carboxylic acid]
* * | Cc1nc(-c2cncc(C(F)(F)F)c2)n(Cc2cccc3ccccc23)c1C(=O)O [Compound A138, 4-methyl-1-(naphthalen-1-ylmethyl)-2-(5-(trifluoromethyl)pyridin-3-yl)-1H-imidazole-5-carboxylic acid]
* * * | O=C(O)c1ccc(-c2cccnc2)n1Cc1csc2cccc(Cl)c12 [Compound B10, 1-((4-chlorobenzo[b]thiophen-3-yl)methyl)-2-(pyridin-3-yl)-1H-pyrrole-5-carboxylic acid]
* * | Clc1ccc(Cl)c(Cn2c(-c3nnn[nH]3)cnc2-c2cccnc2)c1 [Compound A110, 3-(1-(2,5-dichlorobenzyl)-5-(1H-tetrazol-5-yl)-1H-imidazol-2-yl)pyridine]
* * * | Cc1cncc(-c2nc(C)c(C(=O)O)n2Cc2cc(Cl)sc2Cl)c1 [Compound A227, 1-((2,5-dichlorothiophen-3-yl)methyl)-4-methyl-2-(5-methylpyridin-3-yl)-1H-imidazole-5-carboxylic acid]
* * * | Cc1ccc(Oc2nc(-c3cccnc3)n(Cc3cc(Cl)ccc3Cl)c2C(=O)O)cc1 [Compound A99, 1-(2,5-dichlorobenzyl)-2-(pyridin-3-yl)-4-(p-tolyloxy)-1H-imidazole-5-carboxylic acid]
* * * | Cc1ccc(C)c(Cn2c(-c3cncc(Cl)c3)nc(C)c2C(=O)O)c1 [Compound A179, 2-(5-chloropyridin-3-yl)-1-(2,5-dimethylbenzyl)-4-methyl-1H-imidazole-5-carboxylic acid]
* * * | O=C(O)c1ccc(-c2cncc(F)c2)n1Cc1cc(Cl)ccc1Cl [Compound B14, 1-(2,5-dichlorobenzyl)-2-(5-fluoropyridin-3-yl)-1H-pyrrole-5-carboxylic acid]
* * | Cc1nc(-c2cccnc2)n(Cc2cc(Cl)ccc2C(F)(F)F)c1C(=O)O [Compound A44, 1-(5-chloro-2-(trifluoromethyl)benzyl)-4-methyl-2-(pyridin-3-yl)-1H-imidazole-5-carboxylic acid]
* * * | O=C(O)c1c(C(F)(F)F)nc(-c2cncc(F)c2)n1Cc1cc(Cl)ccc1Cl [Compound A136, 1-(2,5-dichlorobenzyl)-2-(5-fluoropyridin-3-yl)-4-(trifluoromethyl)-1H-imidazole-5-carboxylic acid]
* * * | O=C(O)c1c(CN2CCCCC2)nc(-c2cncc(Cl)c2)n1Cc1cc(Cl)ccc1Cl [Compound A195, 2-(5-chloropyridin-3-yl)-1-(2,5-dichlorobenzyl)-4-(piperidin-1-ylmethyl)-1H-imidazole-5-carboxylic acid]

same assay, conditions: HEK 293 cells expressing human URAT1; 14C-labeled uric acid 25 μM; uptake 37° C. for 5 min; read-out: Inhibitory Activity (IC50 of uric acid transport inhibition)

IC50 [µM] | SMILES
2 to 20 | O=C(O)c1c(-c2ccncc2)nc(-c2cccnc2)n1Cc1cc(Cl)ccc1Cl [Compound A95]
2 to 20 | Cc1nc(-c2cccnc2)n(Cc2cc(Cl)ccc2Cl)c1C(=O)NS(=O)(=O)C1CC1 [Compound A112]
2 to 20 | O=C(O)/C=C/c1cnc(-c2cccnc2)n1Cc1cc(Cl)ccc1Cl [Compound A260]
2 to 20 | Cc1nc(-c2ccnc(Cl)c2)n(Cc2cccc3ccccc23)c1C(=O)O [Compound A242]
2 to 20 | Cc1nc(-c2ccccn2)n(Cc2cccc3ccccc23)c1C(=O)O [Compound A243]
2 to 20 | COc1cccc(F)c1Oc1cncc(-c2nc(C)c(C(=O)O)n2Cc2cc(Cl)ccc2Cl)c1 [Compound A184]
2 to 20 | Cc1nc(-c2cncc(F)c2)n(C(C)c2cc(Cl)ccc2Cl)c1C(=O)O (stereo not drawn) [Compound A222]
2 to 20 | Cc1nc(-c2cccnc2)n(Cc2ccc(F)c(Cl)c2)c1C(=O)O [Compound A75]
